From patent publication US8133884B2, “Compounds for the treatment of hepatitis C” (priority 2008, dated 2012)
Read-outs that look alike come from different tables or passages of the source.

Experiments:
[1] = system: 1a replicon; assay: HCV replicon assay with a 1a replicon; assay type: cell-based; conditions: Hepatitis C virus
Description: To perform the HCV FRET screening assay, 96-well cell culture plates were used, The FRET peptide (Anaspec, Inc.) (Taliani et al., Anal. Biochem., 240:60-67 (1996)) contains a fluorescence donor, EDANS, near one end of the peptide and an acceptor, DABCYL, near the other end. The fluorescence of the peptide is quenched by […] resonance energy transfer (RET) between the donor and the acceptor, but as the NS3 protease cleaves the peptide the products are released from RET quenching and the fluorescence of the donor becomes apparent. The assay reagent was made as follows: 5× cell Luciferase cell culture lysis reagent from Promega (#E153A) diluted to 1× with dH2O, NaCl added to 150 mM final, the FRET peptide diluted to 20 μM final from a 2 mM stock.
To prepare plates, HCV replicon cells, with or without a Renilla luciferase reporter gene, were trypsinized and placed into each well of a 96-well plate with titrated test compounds added in columns 3 through 12; columns 1 and 2 contained a control compound (HCV protease inhibitor), and the bottom row contained cells without compound. The plates were then placed in a CO2 incubator at 37° C.
Subsequent to addition of the test compounds described above (FRET Assay Preparation), at various times the plate was removed and Alamar blue solution (Trek Diagnostics, #00-100) was added per well as a measure of cellular toxicity. After reading in a CYTOFLUOR® 4000 instrument (PE Biosystems), plates were rinsed with PBS and then used for FRET assay by the addition of 30 ul of the FRET peptide assay reagent described above (FRET Assay Preparation) per well. The plate was then placed into the CYTOFLUOR® 4000 instrument which had been set to 340 excite/490 emission, automatic mode for 20 cycles and the plate read in a kinetic mode. Typically, the signal to noise using an endpoint analysis after the reads was at least three-fold. Alternatively, after Alamar blue reading, plates were rinsed with PBS, 50 ul of DMEM (high glucose) without phenol red was added and plates were then used for luciferase assay using the Promega DUAL-GLO® Luciferase Assay System.
Compound analysis was determined by quantification of the relative HCV replicon inhibition and the relative cytotoxicity values. To calculate cytoxicity values, the average Alamar Blue fluorescence signals from the control wells were set as 100% non-toxic. The individual signals in each of the compound test wells were then divided by the average control signal and multiplied by 100% to determine […]. To calculate the HCV replicon inhibition values, an average background value was obtained from the two wells containing the highest amount of HCV protease inhibitor at the end of the assay period. These numbers were similar to those obtained from naïve Huh-7 cells. […]

[2] = target: T1, HCV NS5B (Hepatitis C virus genotype 1b, UniProt Q9WMX2); assay: Modified HCV NS5B RdRp enzyme assay (preincubation protocol); assay type: biochemical; conditions: class symbol
T1 construct: The protein was expressed with an 18 amino acid C-terminal truncation to enhance the solubility; made in house; host or cells: E. coli BL21(DE3)
T1 sequence (Q9WMX2 2420-2992): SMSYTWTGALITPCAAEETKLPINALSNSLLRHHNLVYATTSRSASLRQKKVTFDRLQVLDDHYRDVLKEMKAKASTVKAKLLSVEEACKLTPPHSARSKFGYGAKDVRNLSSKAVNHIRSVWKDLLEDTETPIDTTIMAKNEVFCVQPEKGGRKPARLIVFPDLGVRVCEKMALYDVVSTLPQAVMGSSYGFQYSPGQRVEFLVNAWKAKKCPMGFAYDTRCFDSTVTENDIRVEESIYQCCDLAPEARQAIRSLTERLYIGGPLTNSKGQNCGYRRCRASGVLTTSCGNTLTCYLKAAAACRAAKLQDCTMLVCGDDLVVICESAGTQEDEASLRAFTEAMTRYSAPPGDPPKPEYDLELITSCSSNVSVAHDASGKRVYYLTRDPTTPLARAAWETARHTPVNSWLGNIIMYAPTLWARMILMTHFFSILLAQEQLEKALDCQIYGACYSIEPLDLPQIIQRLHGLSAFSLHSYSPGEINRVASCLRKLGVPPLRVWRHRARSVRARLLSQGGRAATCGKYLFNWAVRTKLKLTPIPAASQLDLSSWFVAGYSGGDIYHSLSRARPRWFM
Method in brief: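 C-terminally truncated (Δ18) genotype 1b NS5B from E. coli, 14 nM, added to compound first, then polyA template (0.2 nM), 3H-UTP (0.29 μM) and oligo-dT12 primer precaptured on streptavidin SPA beads (20 nM). Run 4 h at 30° C, pH 7.5, 2% DMSO; IC50 fitted from seven concentrations.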

[3] = system: HCV replicon; assay: HCV replicon assay (FRET or luciferase reporter); assay type: cell-based; conditions: Hepatitis C virus, one of the methods described, class symbol
Method in brief: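 HCV replicon Huh-7 cells were exposed to titrated compound at 37 °C, with Alamar blue as a cytotoxicity read. Replication was measured by NS3 cleavage of an EDANS/DABCYL FRET peptide (20 μM, 340/490 nm kinetic read) or by Renilla luciferase, with background from high-dose protease inhibitor wells. EC50 was taken as 50% signal reduction; a 384-well format used 3.0×10^3 cells/well, 0.5% DMSO and 3 days.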

[4] = determined similarly but with a 1a replicon, class symbol, read-out: EC50

| Structure (SMILES) | EC50 [1, 4] [nM] | EC50 [1] [nM] | IC50 [2] [nM] | EC50 [3] [nM] |
| --- | --- | --- | --- | --- |
| COc1ccc2c(c1)C=C(c1c(C(=O)N3C[C@@H](C)O[C@@H](C)C3)c(C(C)C)nn1C1CC1)Cn1c-2c(C2CCCCC2)c2ccc(C(=O)NS(=O)(=O)C(C)C)cc21 | 1.7 to 500 | – | – | – |
| COc1ccc2c(c1)C=C(c1c(C(=O)N3C[C@@H](C)N(C)[C@@H](C)C3)c(C(C)C)nn1C1CC1)Cn1c-2c(C2CCCCC2)c2ccc(C(=O)NS(=O)(=O)C(C)C)cc21 | 1.7 to 500 | – | – | – |
| COc1ccc2c(c1)C=C(c1c(C(=O)N3C4CCC3COC4)c(C(C)C)nn1C1CC1)Cn1c-2c(C2CCCCC2)c2ccc(C(=O)NS(=O)(=O)C(C)C)cc21 | – | 1.7 to 500 | – | – |
| COc1ccc2c(c1)C=C(c1c(C(=O)N3C4CCC3CN(C)C4)c(C(C)C)nn1C1CC1)Cn1c-2c(C2CCCCC2)c2ccc(C(=O)NS(=O)(=O)C(C)C)cc21 | – | 1.7 to 500 | – | – |
| COc1ccc2c(c1)C=C(c1c(C(=O)N3CC4CCC3C4)cnn1C1CCC1)Cn1c-2c(C2CCCCC2)c2ccc(C(=O)NS(=O)(=O)C(C)C)cc21 (stereo not drawn) | – | – | 1.7 to 500 | 1.7 to 500 |
| COc1ccc2c(c1)C=C(c1c(C(=O)N3CC4CCC(C3)N4C)c(C)nn1C1CCC1)Cn1c-2c(C2CCCCC2)c2ccc(C(=O)NS(=O)(=O)C(C)C)cc21 | – | – | 1.7 to 500 | 1.7 to 500 |
| COc1ccc2c(c1)C=C(c1c(C(=O)N3CCOCC3)noc1C1CC1)Cn1c-2c(C2CCCCC2)c2ccc(C(=O)NS(=O)(=O)N(C)C)cc21 | – | – | 1.7 to 500 | 1.7 to 500 |
| COc1ccc2c(c1)C=C(c1c(C(=O)N3C4CCC3CN(C)C4)c(C)nn1C1CCC1)Cn1c-2c(C2CCCCC2)c2ccc(C(=O)NS(=O)(=O)N(C)C)cc21 | – | – | 1.7 to 500 | 1.7 to 500 |
| COc1ccc2c(c1)C=C(c1c(C(=O)N3C[C@@H](C)O[C@@H](C)C3)ncn1C1CCC1)Cn1c-2c(C2CCCCC2)c2ccc(C(=O)NS(=O)(=O)C(C)C)cc21 | – | – | 1.7 to 500 | 1.7 to 500 |
| COc1ccc2c(c1)C=C(c1c(C(=O)N3C4CCC3CC(C)(O)C4)cnn1C1CCC1)Cn1c-2c(C2CCCCC2)c2ccc(C(=O)NS(=O)(=O)C(C)C)cc21 (stereo not drawn) | – | – | 1.7 to 500 | 1.7 to 500 |
| COc1ccc2c(c1)C=C(c1c(C(=O)N3C[C@@H](C)O[C@@H](C)C3)cnn1-c1ccnc(C)c1)Cn1c-2c(C2CCCCC2)c2ccc(C(=O)NS(=O)(=O)C(C)C)cc21 | – | – | 1.7 to 500 | 1.7 to 500 |
| COc1ccc2c(c1)C=C(c1c(C(=O)N3CCN(C4CCCC4)CC3)cnn1C1CCC1)Cn1c-2c(C2CCCCC2)c2ccc(C(=O)NS(=O)(=O)C(C)C)cc21 | – | – | 1.7 to 500 | 1.7 to 500 |
| COc1ccc2c(c1)C=C(c1c(C(=O)N3C[C@@H](C)O[C@@H](C)C3)cnn1-c1ccccn1)Cn1c-2c(C2CCCCC2)c2ccc(C(=O)NS(=O)(=O)C(C)C)cc21 | – | – | 1.7 to 500 | 1.7 to 500 |
| CCOC(=O)c1cnn(-c2ccncc2C)c1C1=Cc2cc(OC)ccc2-c2c(C3CCCCC3)c3ccc(C(=O)NS(=O)(=O)C(C)C)cc3n2C1 | – | – | 1.7 to 500 | 1.7 to 500 |
| COc1ccc2c(c1)C=C(c1c(C(=O)N3C[C@@H](C)N(C)[C@@H](C)C3)cnn1C1CCOCC1)Cn1c-2c(C2CCCCC2)c2ccc(C(=O)NS(=O)(=O)C(C)C)cc21 | – | – | 1.7 to 500 | 1.7 to 500 |
| CCOC(=O)c1cnn(-c2ccncc2C)c1C1=Cc2cc(OC)ccc2-c2c(C3CCCCC3)c3ccc(C(=O)O)cc3n2C1 | – | – | 1.7 to 500 | 1.7 to 500 |
| COc1ccc2c(c1)C=C(c1c(C(=O)N3C[C@@H](C)N(C)[C@@H](C)C3)cnn1-c1ccncc1C)Cn1c-2c(C2CCCCC2)c2ccc(C(=O)NS(=O)(=O)C(C)C)cc21 | – | – | 1.7 to 500 | 1.7 to 500 |
